Assay results as given in patent US9499550B2 (BRISTOL-MYERS SQUIBB COMPANY, priority 2012, dated 2016).
Like-named read-outs stand apart in the source and are kept apart here.

How the values were obtained:
[1] = system: HCV genotype 1b (Con1) replicon in HUH-7 cells; experiment: HCV replicon luciferase reporter assay, genotype 1b; type: cell-based; conditions: Hepatitis C virus, Huh-7, 72 h, HCV genotype 1b replicon luciferase, 3 days incubation, read-out: LE_1b (EC50, range)
In short: (§1)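 Replicon inhibition for both genotypes was measured as Renilla luciferase signal (EnduRen, 7.5 μM final, 2 h) after 3-day, 37° C exposure of replicon-bearing HUH-7 cells in 4% FCS DMEM, 0.5% DMSO. The 1b construct carries S1179I; the 1a H77 construct carries P1496L and S2204I. Twenty-point, 3-fold dilutions were fitted four-parametrically for EC50, and CC50 was taken from multiplexed Cell Titer-Blue.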

[2] = system: HCV genotype 1a (H77 strain) replicon in HUH-7 cells; experiment: HCV replicon luciferase reporter assay, genotype 1a; type: cell-based; conditions: Hepatitis C virus, Huh-7, 72 h, HCV genotype 1a replicon luciferase, 3 days incubation, read-out: LE_1a (EC50, range)
In short: as §1

Structure (SMILES) | EC50 [1] | EC50 [2] | EC50 ([1]; GETYPE1B) | EC50 ([2]; GETYPE1A)
CC[C@@H]1C[C@H](C)CC/C=C\[C@@H]2C[C@@]2(C(=O)NS(=O)(=O)C2(C)CC2)NC(=O)[C@@H]2C[C@@H](Oc3nccc4cc(OC)c(Cl)cc34)CN2C(=O)[C@H]1NC(=O)OC(C)(C)C(C)(F)F [Compound 3224, 3,3-difluoro-2-methylbutan-2-yl((2R,6S,7R,9R,13aS,14aR,16aS,Z)-2-((7-chloro-6-methoxyisoquinolin-1-yl)oxy)-7-ethyl-9-methyl-14a-(((1-methylcyclopropyl)sulfonyl)carbamoyl)-5,16-dioxo-1,2,3,5,6,7,8,9,10,11,13a,14,14a,15,16,16a-hexadecahydrocyclopropa[e]pyrrolo[1,2-a][1,4]diazacyclopentadecin-6-yl)carbamate] | 1.01 to 5 nM | 1.01 to 5 nM | – | –
CC[C@@H]1C[C@H](C)CC/C=C\[C@@H]2C[C@@]2(C(=O)NS(=O)(=O)C2(C)CC2)NC(=O)[C@@H]2C[C@@H](Oc3nccc4cc(OC)c(Cl)cc34)CN2C(=O)[C@H]1NC(=O)OC(C)(C)C(F)F [Compound 3226, 1,1-difluoro-2-methylpropan-2-yl((2R,6S,7R,9R,13aS,14aR,16aS,Z)-2-((7-chloro-6-methoxyisoquinolin-1-yl)oxy)-7-ethyl-9-methyl-14a-(((1-methylcyclopropyl)sulfonyl)carbamoyl)-5,16-dioxo-1,2,3,5,6,7,8,9,10,11,13a,14,14a,15,16,16a-hexadecahydrocyclopropa[e]pyrrolo[1,2-a][1,4]diazacyclopentadecin-6-yl)carbamate] | 0.51 to 1 nM | 1.01 to 5 nM | – | –
CC[C@@H]1C[C@H](C)CC/C=C\[C@@H]2C[C@@]2(C(=O)NS(=O)(=O)C2CC2)NC(=O)[C@@H]2C[C@H](Oc3ncc(OC)c4ccc(F)cc34)CN2C(=O)[C@@H]1NC(=O)OC(C)(C)C [Compound 4001, tert-butyl tert-butyl (2R,6S,7R,9R,13aS,14aR,16aS,Z)-14a-(cyclopropylsulfonylcarbamoyl)-7-ethyl-2-(7-fluoro-4-methoxyisoquinolin-1-yloxy)-9-methyl-5,16-dioxo-1,2,3,5,6,7,8,9,10,11,13a,14,14a,15,16,16a-hexadecahydrocyclopropa[e]pyrrolo[1,2-a][1,4]diazacyclopentadecin-6-ylcarbamate] | < 5.46 nM | < 5.46 nM | – | –
CC[C@@H]1C[C@H](C)CC/C=C\[C@@H]2C[C@@]2(C(=O)NS(=O)(=O)C2CC2)NC(=O)[C@@H]2C[C@@H](Oc3ncc(OC)c4ccc(F)cc34)CN2C(=O)[C@H]1NC(=O)OC(C)(C)C(F)(F)F [Compound 4002, 1,1,1-trifluoro-2-methylpropan-2-yl (2R,6S,7R,9R,13aS,14aR,16aS,Z)-14a-(cyclopropylsulfonylcarbamoyl)-7-ethyl-2-(7-fluoro-4-methoxyisoquinolin-1-yloxy)-9-methyl-5,16-dioxo-1,2,3,5,6,7,8,9,10,11,13a,14,14a,15,16,16a-hexadecahydrocyclopropa[e]pyrrolo[1,2-a][1,4]diazacyclopentadecin-6-ylcarbamate] | < 5.46 nM | < 5.46 nM | – | –
CC[C@@H]1C[C@H](C)CC/C=C\[C@@H]2C[C@@]2(C(=O)NS(=O)(=O)C2CC2)NC(=O)[C@@H]2C[C@@H](Oc3nccc4cc(OC)c(F)cc34)CN2C(=O)[C@H]1NC(=O)OC(C)(C)C [Compound 4003, tert-butyl (2R,6S,7R,9R,13aS,14aR,16aS,Z)-14a-(cyclopropylsulfonylcarbamoyl)-7-ethyl-2-(7-fluoro-6-methoxyisoquinolin-1-yloxy)-9-methyl-5,16-dioxo-1,2,3,5,6,7,8,9,10,11,13a,14,14a,15,16,16a-hexadecahydrocyclopropa[e]pyrrolo[1,2-a][1,4]diazacyclopentadecin-6-ylcarbamate] | < 5.46 nM | < 5.46 nM | – | –
CC[C@@H]1C[C@H](C)CC/C=C\[C@@H]2C[C@@]2(C(=O)NS(=O)(=O)C2CC2)NC(=O)[C@@H]2C[C@@H](Oc3nccc4cc(OC)c(F)cc34)CN2C(=O)[C@H]1NC(=O)OC(C)(C)C(F)(F)F [Compound 4004, 1,1,1-trifluoro-2-methylpropan-2-yl (2R,6S,7R,9R,13aS,14aR,16aS,Z)-14a-(cyclopropylsulfonylcarbamoyl)-7-ethyl-2-(7-fluoro-6-methoxyisoquinolin-1-yloxy)-9-methyl-5,16-dioxo-1,2,3,5,6,7,8,9,10,11,13a,14,14a,15,16,16a-hexadecahydrocyclopropa[e]pyrrolo[1,2-a][1,4]diazacyclopentadecin-6-ylcarbamate] | < 5.46 nM | < 5.46 nM | – | –
CC[C@@H]1C[C@H](C)CC/C=C\[C@@H]2C[C@@]2(C(=O)NS(=O)(=O)C2CC2)NC(=O)[C@@H]2C[C@@H](Oc3nccc4cc(OC)ccc34)CN2C(=O)[C@H]1NC(=O)OC(C)(C)C [Compound 4005, tert-butyl (2R,6S,7R,9R,13aS,14aR,16aS,Z)-14a-(cyclopropylsulfonylcarbamoyl)-7-ethyl-2-(6-methoxyisoquinolin-1-yloxy)-9-methyl-5,16-dioxo-1,2,3,5,6,7,8,9,10,11,13a,14,14a,15,16,16a-hexadecahydrocyclopropa[e]pyrrolo[1,2-a][1,4]diazacyclopentadecin-6-ylcarbamate] | < 5.46 nM | < 5.46 nM | – | –
CC[C@@H]1C[C@H](C)CC/C=C\[C@@H]2C[C@@]2(C(=O)NS(=O)(=O)C2CC2)NC(=O)[C@@H]2C[C@@H](Oc3nccc4cc(OC)ccc34)CN2C(=O)[C@H]1NC(=O)OC(C)(C)C(F)(F)F [Compound 4006, 1,1,1-trifluoro-2-methylpropan-2-yl (2R,6S,7R,9R,13aS,14aR,16aS,Z)-14a-(cyclopropylsulfonylcarbamoyl)-7-ethyl-2-(6-methoxyisoquinolin-1-yloxy)-9-methyl-5,16-dioxo-1,2,3,5,6,7,8,9,10,11,13a,14,14a,15,16,16a-hexadecahydrocyclopropa[e]pyrrolo[1,2-a][1,4]diazacyclopentadecin-6-ylcarbamate] | < 5.46 nM | < 5.46 nM | – | –
C=C1C=Cc2c(O[C@@H]3C[C@H]4C(=O)N[C@]5(C(=O)NS(=O)(=O)C6CC6)C[C@H]5/C=C\CC[C@@H](C)C[C@@H](CC)[C@H](NC(=O)OC(C)(C)C)C(=O)N4C3)ncc(OC)c2C1 [Compound 4007] | < 5.46 nM | < 5.46 nM | – | –
COc1ccc2c(O[C@@H]3C[C@H]4C(=O)N[C@]5(C(=O)NS(=O)(=O)C6(C)CC6)C[C@H]5/C=C\CC[C@@H](C)C[C@@H](C)[C@H](NC(=O)OC(C)(C)C(F)(F)F)C(=O)N4C3)ncc(N3CCN(C)CC3)c2c1 [Compound 4013] | – | – | < 5.46 nM | < 5.46 nM
COc1ccc2c(O[C@@H]3C[C@H]4C(=O)N[C@]5(C(=O)NS(=O)(=O)C6(F)CC6)C[C@H]5/C=C\CC[C@@H](C)C[C@@H](C)[C@H](NC(=O)C(C)(C)C)C(=O)N4C3)nccc2c1 [Compound 4015] | < 5.46 nM | < 5.46 nM | – | –
COc1ccc2c(O[C@@H]3C[C@H]4C(=O)N[C@]5(C(=O)NS(=O)(=O)C6(F)CC6)C[C@H]5/C=C\CC[C@@H](C)C[C@@H](C)[C@H](NC(=O)OC(C)C)C(=O)N4C3)nccc2c1 [Compound 4016] | < 5.46 nM | < 5.46 nM | – | –
CC(C)Oc1cnc(O[C@@H]2C[C@H]3C(=O)N[C@]4(C(=O)NS(=O)(=O)C5CC5)C[C@H]4/C=C\CC[C@@H](C)C[C@@H](C)[C@H](NC(=O)OC(C)(C)C(F)(F)F)C(=O)N3C2)c2cccc(Cl)c12 [Compound 4017] | < 5.46 nM | < 5.46 nM | – | –
COc1ccc2c(O[C@@H]3C[C@H]4C(=O)N[C@]5(C(=O)NS(=O)(=O)C6(F)CC6)C[C@H]5/C=C\CC[C@@H](C)C[C@@H](C)[C@H](NC(=O)OCC(C)C)C(=O)N4C3)nccc2c1 [Compound 4018] | < 5.46 nM | < 5.46 nM | – | –
